Laboratory results from patent US10344019B2 (priority 2010, dated 2019).
Like-named read-outs stand apart in the source and are kept apart here.

Legend:
Test in all cases: microbe, parasite or virus in culture
Assay type in all cases: cell-based
[1] = tested on: HCV 4a Rluc cells (NS5A chimeric genotype 1b Con1 replicon with genotype 4a NS5A gene); conditions: Hepatitis C virus, read-out: 4a
How it was run: (§1)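 Replicon cells stably carrying the listed RLuc-encoding dicistronic replicons were seeded and treated with DMSO serial dilutions of compound (10 mM stocks) diluted into culture medium. After 72 h, cells were lysed and Renilla luciferase activity measured. EC50 was derived by non-linear regression.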

[2] = tested on: HCV 1a RLuc cells (dicistronic genotype 1a H77 replicon, RLuc reporter); conditions: Hepatitis C virus, read-out: 1a
How it was run: (§2)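 Replicons used: genotype 1b Con1, 1a H77, 2a JFH-1, and a 2a JFH-1 chimera with J6-strain NS5A (M31 present), all dicistronic.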

[3] = tested on: HCV 1b RLuc cells (dicistronic genotype 1b Con1 replicon, RLuc reporter); conditions: Hepatitis C virus, read-out: 1b (nM)
How it was run: as §2

[4] = tested on: HCV 2a JFH-1 Rluc cells (dicistronic genotype 2a JFH-1 replicon, RLuc reporter); conditions: Hepatitis C virus, genotype 2a JFH-1 replicon, read-out: 2a JFH
How it was run: as §2

[5] = tested on: HCV 3a RLuc cells (NS5A chimeric genotype 1b Con1 replicon with consensus genotype 3a NS5A gene); conditions: Hepatitis C virus
How it was run: as §1

[6] = 72 h, Table 2, genotype 1a H77 replicon, 72 hours
[7] = read-out: 3a, Table 2, genotype 3a NS5A chimeric replicon
[8] = genotype 1a H77 replicon, RLuc reporter
[9] = read-out: 3a, genotype 3a NS5A chimeric 1b Con1 replicon
[10] = 72 h, Table 1, genotype 1a H77 replicon, 72 hours
[11] = read-out: 3a, Table 1, genotype 3a NS5A chimeric replicon
[12] = read-out: 3a, genotype 3a replicon

Row | SMILES | EC50 [1] | EC50 [2, 8] | EC50 [3] | EC50 ([4]; RLuc reporter) | EC50 [5, 9] | EC50 ([2]; genotype 1a replicon) | EC50 [4] | EC50 [5, 12] | further results
1 | COC(=O)N[C@H](C(=O)N1[C@@H]2CC[C@@H](C2)[C@H]1c1ncc(-c2ccc(-c3ccc(-c4cnc([C@@H]5C[C@H]6C[C@H]6N5C(=O)[C@@H](NC(=O)OC)C(C)C)[nH]4)cc3)cc2)[nH]1)C(C)C [Example 99] | 0.001 to 0.99 nM | – | – | – | – | – | – | – | EC50 [2, 6]: 0.001 to 0.999 nM; EC50 ([3]; 72 h): 0.021 nM; EC50 ([4]; 72 h, Table 2, 72 hours): 0.001 to 0.999 nM; EC50 [5, 7]: 1 to 4.99 nM
2 | COC(=O)NC(C(=O)N1CCC[C@H]1c1ncc(-c2ccc(-c3ccc4cc(-c5cnc([C@@H]6CCCN6C(=O)[C@@H](NC(=O)OC)C(C)C)[nH]5)ccc4c3)cc2)[nH]1)c1cnccn1 (stereo partly drawn) [Example 230] | 1 to 4.99 nM | 0.001 to 0.999 nM | 0.012 nM | 1 to 44 nM | 1 to 4.99 nM | – | – | – | –
3 | COC(=O)N[C@H](C(=O)N1CCC[C@H]1c1ncc(-c2ccc3cc(-c4ccc(-c5cnc([C@@H]6CCCN6C(=O)[C@H](NC(=O)C6CCCO6)c6ccccc6)[nH]5)cc4)ccc3c2)[nH]1)C(C)C (stereo partly drawn) [Example 261] | 0.001 to 0.99 nM | 0.001 to 0.999 nM | 0.011 nM | 0.001 to 0.999 nM | 0.001 to 0.99 nM | – | – | – | –
4 | COC(=O)NC(C(=O)N1CCC[C@@H]1c1nc(-c2ccc3c(c2)C(F)(F)c2cc(-c4ccc5nc([C@@H]6[C@H]7CC[C@H](C7)N6C(=O)[C@H](NC(=O)OC)c6ccccc6)[nH]c5c4)ccc2-3)c[nH]1)[C@@H](C)OC (stereo partly drawn) [Example 81] | 0.001 to 0.99 nM | – | – | – | – | – | – | – | EC50 [2, 6]: 0.001 to 0.999 nM; EC50 ([3]; 72 h): 0.006 nM; EC50 ([4]; 72 h, Table 2, 72 hours): 0.001 to 0.999 nM; EC50 [5, 7]: 0.001 to 0.99 nM
5 | CCC(CC)[C@H](NC(=O)OC)C(=O)N1CCC[C@H]1c1ncc(-c2ccc3cc(-c4ccc(-c5cnc([C@@H]6CCCN6C(=O)[C@H](NC(=O)OC)c6ccccc6)[nH]5)cc4)ccc3c2)[nH]1 [Example 286] | 0.001 to 0.99 nM | 0.001 to 0.999 nM | 0.003 nM | 0.001 to 0.999 nM | 0.001 to 0.99 nM | – | – | – | –
6 | COC(=O)N[C@H](C(=O)N1CCC[C@H]1c1nc2c([nH]1)-c1ccc(-c3ccc4cc(-c5cnc([C@@H]6CCCN6C(=O)[C@H](NC(=O)OC)c6ccccc6)[nH]5)ccc4c3)cc1CC2)C1CCN(C(=O)OC(C)(C)C)CC1 [Example 270] | 0.001 to 0.99 nM | 0.001 to 0.999 nM | 0.032 nM | 0.001 to 0.999 nM | 0.001 to 0.99 nM | – | – | – | –
7 | COC(=O)NC(C(=O)N1CCC[C@H]1c1ncc(-c2ccc3cc(-c4ccc(-c5cnc([C@@H]6C[C@@H](C)CN6C(=O)[C@@H](NC(=O)OC)C6CCOCC6)[nH]5)cc4)ccc3c2)[nH]1)c1ccccc1 (stereo partly drawn) [Example 204] | 0.001 to 0.99 nM | 0.001 to 0.999 nM | 0.03 nM | 0.001 to 0.999 nM | 0.001 to 0.99 nM | – | – | – | –
8 | COC(=O)N[C@H](C(=O)N1CCC[C@H]1c1ncc(-c2ccc3c(c2)COc2c-3ccc3cc(-c4cnc([C@@H]5CCCN5C(=O)[C@H](NC(=O)OC)c5ccccc5)[nH]4)ccc23)[nH]1)C1CCOCC1 [Example 4] | 0.001 to 0.99 nM | – | – | – | – | – | – | – | EC50 [2, 10]: 0.001 to 0.999 nM; EC50 ([3]; 72 h): 0.11 nM; EC50 ([4]; 72 h, Table 1, 72 hours): 0.001 to 0.999 nM; EC50 [5, 11]: 0.001 to 0.99 nM
9 | COC(=O)N[C@H](C(=O)N1CCC[C@H]1c1nc(-c2ccc3c(c2)C(F)(F)c2cc(-c4ccc5nc([C@@H]6CCCN6C(=O)[C@@H](NC(=O)OC)C6CCOCC6)[nH]c5c4)ccc2-3)c[nH]1)C(C)C [Example 220] | 0.001 to 0.99 nM | 0.001 to 0.999 nM | 0.011 nM | 0.001 to 0.999 nM | 1 to 4.99 nM | – | – | – | –
10 | COC(=O)N[C@H](C(=O)N1CCC[C@H]1c1nc(-c2ccc3cc(-c4ccc(-c5cnc([C@@H]6CCCN6C(=O)[C@H](NC(=O)OC)c6ccccc6)[nH]5)cc4)sc3c2)c[nH]1)C(C)C [Example 253] | 0.001 to 0.99 nM | 0.001 to 0.999 nM | 0.005 nM | 0.001 to 0.999 nM | 0.001 to 0.99 nM | – | – | – | –
11 | COC(=O)N[C@H](C(=O)N1CCC[C@H]1c1ncc(-c2ccc3cc(-c4ccc(-c5cnc([C@@H]6CC7(CC7)CN6C(=O)[C@H](NC(=O)OC)c6ccccc6)[nH]5)cc4)ccc3c2)[nH]1)C(C)C [Example 235] | 0.001 to 0.99 nM | 0.001 to 0.999 nM | 0.004 nM | 0.001 to 0.999 nM | 1 to 4.99 nM | – | – | – | –
12 | COC(=O)N[C@H](C(=O)N1CCC[C@H]1c1ncc(-c2ccc3c(c2)COc2c-3ccc3cc(-c4cnc([C@@H]5CCCN5C(=O)OCc5ccccc5)[nH]4)ccc23)[nH]1)C1CCOCC1 [Example 6] | 0.001 to 0.99 nM | – | – | – | – | – | – | – | EC50 [2, 10]: 1 to 44 nM; EC50 ([3]; 72 h): 0.051 nM; EC50 ([4]; 72 h, Table 1, 72 hours): 1 to 44 nM; EC50 [5, 11]: > 5 nM
13 | COC(=O)NC(C(=O)N1CCC[C@H]1c1ncc(-c2ccc3c(c2)OCc2cc(-c4ccc5nc([C@@H]6[C@H]7CC[C@H](C7)N6C(=O)[C@H](NC(=O)OC)c6ccccc6)[nH]c5c4)ccc2-3)[nH]1)[C@@H](C)OC (stereo in doubt) [Example 294] | 0.001 to 0.99 nM | – | 0.01 nM | – | – | 0.001 to 0.999 nM | 0.001 to 0.999 nM | 0.001 to 0.99 nM | –
14 | COC(=O)N[C@H](C(=O)N1CCC[C@H]1c1ncc(-c2cc3c(cc2F)-c2ccc(-c4cnc([C@@H]5CCCN5C(=O)[C@@H](NC(=O)OC)C(C)C)[nH]4)c(F)c2CO3)[nH]1)C(C)C [Example 341] | 0.001 to 0.99 nM | – | 0.006 nM | – | – | 0.001 to 0.999 nM | 0.001 to 0.999 nM | 0.001 to 0.99 nM | –
15 | COC(=O)N[C@H](C(=O)N1CCC[C@H]1c1ncc(-c2ccc3cc(-c4ccc(-c5cnc([C@@H]6[C@H]7CC[C@H](C7)N6C(=O)[C@H](NC(=O)OC)c6ccccc6)[nH]5)cc4)ccc3c2)[nH]1)C1CCOCC1 [Example 49] | 0.001 to 0.99 nM | – | – | – | – | – | – | – | EC50 [2, 6]: 0.001 to 0.999 nM; EC50 ([3]; 72 h): 0.014 nM; EC50 ([4]; 72 h, Table 2, 72 hours): 0.001 to 0.999 nM; EC50 [5, 7]: 0.001 to 0.99 nM
16 | COC(=O)N[C@H](C(=O)N1CCC[C@H]1c1nc2ccc3cc(-c4ccc(-c5cnc([C@@H]6CC7(CN6C(=O)[C@H](NC(=O)OC)c6ccccc6)OCCO7)[nH]5)cc4)ccc3c2[nH]1)C(C)C [Example 296] | 0.001 to 0.99 nM | – | 0.063 nM | – | – | 0.001 to 0.999 nM | 0.001 to 0.999 nM | 0.001 to 0.99 nM | –
17 | COC(=O)N[C@H](C(=O)N1CCC[C@H]1c1ncc(-c2cc3c4c(c2)OCc2cc(-c5cnc([C@@H]6CCCN6C(=O)C(c6ccccc6)N(C)C)[nH]5)cc(c2-4)OC3)[nH]1)C(C)C (stereo partly drawn) [Example 307] | 0.001 to 0.99 nM | – | 0.091 nM | – | – | 0.001 to 0.999 nM | 0.001 to 0.999 nM | 0.001 to 0.99 nM | –
18 | COC(=O)N[C@H](C(=O)N1CCC[C@H]1c1ncc(-c2ccc(-c3ccc4c(c3)C(F)(F)c3cc(-c5cnc([C@@H]6CCCN6C(=O)[C@@H](NC(=O)OC)C(C)(C)C)[nH]5)ccc3-4)cc2)[nH]1)C1CCOCC1 [Example 201] | 0.001 to 0.99 nM | 0.001 to 0.999 nM | 0.018 nM | 1 to 44 nM | > 5 nM | – | – | – | –
19 | COC(=O)N[C@H](C(=O)N1CCC[C@H]1c1nc2ccc3cc(C#Cc4ccc(-c5cnc([C@@H]6CCCN6C(=O)[C@H](NC(=O)OC)c6ccccc6)[nH]5)cc4)ccc3c2[nH]1)C(C)C [Example 238] | 0.001 to 0.99 nM | 0.001 to 0.999 nM | 0.005 nM | 0.001 to 0.999 nM | 0.001 to 0.99 nM | – | – | – | –
20 | COC(=O)N[C@H](C(=O)N1CCCC1c1ncc(-c2cc3c4c(c2)OCc2cc(-c5cnc([C@@H]6CCCN6C(=O)[C@@H](NC(=O)OC)C6CCC6)[nH]5)cc(c2-4)OC3)[nH]1)C1CCC1 (stereo in doubt) [Example 376] | 0.001 to 0.99 nM | – | 0.02 nM | – | – | 0.001 to 0.999 nM | 0.001 to 0.999 nM | 0.001 to 0.99 nM | –
21 | COC(=O)N[C@H](C(=O)N1CCC[C@H]1c1ncc(-c2ccc3c(c2)CCc2cc(-c4cnc([C@@H]5[C@H]6CC[C@H](C6)N5C(=O)[C@@H](c5ccccc5)N5CCOCC5)[nH]4)ccc2-3)[nH]1)C(C)C [Example 295] | 0.001 to 0.99 nM | – | 0.05 nM | – | – | 1 to 44 nM | 0.001 to 0.999 nM | 0.001 to 0.99 nM | –
22 | COC(=O)N[C@H](C(=O)N1CCC[C@H]1c1nc2ccc3cc(-c4ccc5c(c4)CCc4nc([C@@H]6[C@H]7CC[C@H](C7)N6C(=O)[C@@H](NC(=O)OC)C(C)C)[nH]c4-5)ccc3c2[nH]1)C(C)C [Example 290] | 0.001 to 0.99 nM | – | 0.017 nM | – | – | 0.001 to 0.999 nM | 0.001 to 0.999 nM | 0.001 to 0.99 nM | –
23 | CC#Cc1cc(-c2cnc([C@@H]3CCCN3C(=O)[C@@H](NC(=O)OC)C(C)C)[nH]2)ccc1-c1ccc(-c2cnc([C@@H]3CCCN3C(=O)[C@@H](NC(=O)OC)C(C)C)[nH]2)cc1 [Example 342] | 0.001 to 0.99 nM | – | 0.01 nM | – | – | 0.001 to 0.999 nM | 0.001 to 0.999 nM | 0.001 to 0.99 nM | –
24 | COC(=O)N[C@H](C(=O)N1CCC[C@H]1c1nc2ccc3cc(-c4ccc(-c5[nH]c([C@@H]6C[C@H]7C[C@H]7N6C(=O)[C@@H](NC(=O)OC)C(C)C)nc5Cl)cc4)ccc3c2[nH]1)C(C)C [Example 383] | 0.001 to 0.99 nM | – | 0.008 nM | – | – | 0.001 to 0.999 nM | 0.001 to 0.999 nM | 0.001 to 0.99 nM | –
